Laboratory results: article PMC6389962 (Nature Communications, 2019)

Columns and labels:
in vitro = conditions: mouse, plasma
In short: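 Oligomer at 5 µM final in mouse plasma/PBS pH 7.4 (1:1) at 37 °C, with a plasma-free control defining t = 0. Aliquots quenched in cold acetonitrile at 20 and 60 min; remaining oligomer quantified by LC-MS extracted-ion peak area.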

[1] = Pharmacokinetic evaluation in mice, i.v. (first study, peer review file Table 3); conditions: in vivo, normal C57BL/6J mice, male, n = 3, 25 μg/mouse (~250 nmol/kg) intravenous, first PK study
Protocol: Our current understanding is that […]
ways (See Figure below for reviewing only).
(1 picture or pasted object on this page, not shown here)
PK mice Table 3 | Pharmacokinetic evaluation in mice by i.v.
*** (m L/m i n/ k g) (mL/kg) (m in)
Formulation: 2 mg/mL in PB S 1X.
An additional table has been prepared (Table 3) and the following text was added:
“A pharmacokinetic study was also conducted in mice to access the pharmacologic […]
The manuscript by Fremaux et al. describes the synthesis and biological evaluation of α-pept ide- […]
In the design of those analogues, four […]
peptide chemistry and medicinal chemistry.
The authors should, however, revise the manuscript for typographic and gramatical errors. As an example, the following sentence should be revised:
The manuscript was revised for typographic and grammatical errors and the sentence above was […]

mouse GLP-1 receptor = target: T1, mouse GLP-1 receptor (Mus musculus, UniProt O35659)
T1 sequence (O35659 22-463): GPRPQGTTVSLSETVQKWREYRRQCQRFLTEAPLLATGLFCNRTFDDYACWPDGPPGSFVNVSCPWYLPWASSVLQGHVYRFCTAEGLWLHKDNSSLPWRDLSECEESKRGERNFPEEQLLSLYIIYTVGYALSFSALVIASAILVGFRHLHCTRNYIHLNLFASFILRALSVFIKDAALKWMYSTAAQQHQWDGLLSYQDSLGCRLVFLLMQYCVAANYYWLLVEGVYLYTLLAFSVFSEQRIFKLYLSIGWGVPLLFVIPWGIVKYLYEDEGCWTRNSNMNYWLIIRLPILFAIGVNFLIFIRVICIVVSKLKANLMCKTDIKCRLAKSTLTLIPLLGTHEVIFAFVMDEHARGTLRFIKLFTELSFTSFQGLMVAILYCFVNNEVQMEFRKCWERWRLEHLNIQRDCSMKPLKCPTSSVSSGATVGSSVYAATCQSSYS

In the case of `CC[C@H](C)[C@H](NC(=O)[C@H](Cc1ccccc1)NC(=O)[C@H](CCC(=O)O)NC(=O)[C@H](CCCCN)NC(=O)[C@H](C)NC(=O)[C@H](C)NC(=O)[C@H](CCC(N)=O)NC(=O)CNC(=O)[C@H](CCC(=O)O)NC(=O)[C@H](CC(C)C)NC(=O)[C@H](Cc1ccc(O)cc1)NC(=O)[C@H](CO)NC(=O)[C@H](CO)NC(=O)[C@@H](NC(=O)[C@H](CC(=O)O)NC(=O)[C@H](CO)NC(=O)[C@@H](NC(=O)[C@H](Cc1ccccc1)NC(=O)[C@@H](NC(=O)CNC(=O)[C@H](CCC(=O)O)NC(=O)CNC(=O)[C@@H](N)Cc1c[nH]cn1)[C@@H](C)O)[C@@H](C)O)C(C)C)C(=O)N[C@@H](C)C(=O)N[C@@H](Cc1c[nH]c2ccccc12)C(=O)N[C@@H](CC(C)C)C(=O)N[C@H](C(=O)N[C@@H](CCCCN)C(=O)NCC(=O)N[C@@H](CCCNC(=N)N)C(=O)NCC(N)=O)C(C)C` [compound 1, GLP-1-G^2 (GG2)], the half-life (in vitro; pH 7.4) is reported as 16 min, the remaining at 20 min (in vitro; pH 7.4, % remaining analogue) is reported as 34.8% and the remaining at 1 h (in vitro; pH 7.4, % remaining analogue) is reported as 23.9%. It also gave a clearance ([1]; 2 mg/mL in PBS 1X) of 448 mL/min/kg, a half-life [1] of 7 min and a Vd ([1]; read-out: Vz) of 4.48 L/kg. For the same compound, the “LogEC50 (best-fit value)” value (mouse GLP-1 receptor) was -9.62 and the “Potency (%), percentage of potency compare to GLP-1-G^2” value (mouse GLP-1 receptor; cAMP production, from EC50) was 100%.
